According to patent publication US6518295B1, “Utilization of aryl(or heteroaryl)azolylcarbinol derivatives in the preparation of a medicament for the treatment of troubles mediated by an excess of substance P” (Laboratorios del Dr. Esteve, S.A., priority 1998, dated 2003):
Read-outs that look alike come from different tables or passages of the source.

Tests used:
Type in all cases: in vivo
[1] = tested on: intrathecal release of substance P; experiment: Effect on the spinal release of substance P in rats (intrathecal perfusion)
Experimental: Effect on the Spinal Release of Substance P in Rats:
The study was carried out in vivo, in rats anaesthetised with halothane. The trial consisted of intrathecal perfusion with an artificial cerebrospinal fluid, with a view to collecting the peptides released from the superficial layers of the spinal cord while the product under study is administered locally or systematically. The method used was that described by Collin, E. and co-workers (Naunyn-Schmiedeberg's Arch. Pharmacol., 1994, 349, 387-393).
The activity of the (±)-5-{α-[2-(dimethylamino)ethoxy] benzyl}-1-methyl-1H-pyrazol citrate (example 191) was studied, administered intrathecally in the perfusion liquid, at a concentration of 1 μM.
It is of note that the effect of the systematic administration of product on the intrathecal release of substance P lasted 2 hours, the average inhibition being 50% of the effect during this period.

[2] = tested on: ptosis induced by reserpine; experiment: Inhibition of ptosis induced by reserpine in mice
Experimental: (§1) In one the inhibition of ptosis induced by reserpine was studied, and in the other the effect on mobility in adverse situation was investigated.
2.1 Inhibition of Ptosis Induced by Reserpine in Mice:
The method used was that described by S.Garattini and co-workers (Med. Exp., 1960, 3, 315-320). The trial consists of observing the possible inhibition of ptosis induced by reserpine ([…], ip: intraperitoneal) in mice, after the products under study had been administered orally.
The activity of the (±)-5-{α-[2-(dimethylamino)ethoxy] benzyl}-1-methyl-1H-pyrazol citrate (example 191) administered orally at different doses has been determined.

[3] = tested on: immobility time in adverse situation; experiment: Effect on mobility in adverse situation (mice suspended by their tails, ITEMATIC-TST)
Text: as §1
2.2 Effect on Mobility in Adverse Situation:
The method used was described by R. D. Porsolt and co-workers (Arch. Int. Pharmacodyn., 1987, 288, 11-30). The trial consists of suspending the mice by their tales for six minutes in an ITEMATIC-TST apparatus, which measures the mobility and the strength of the animals' movements. The animals exposed to this adverse situation, after a start with vigorous activity, become desperate and end up staying still.

In the case of `CN(C)CCOC(c1ccccc1)c1ccnn1C.O=C(O)CC(O)(CC(=O)O)C(=O)O` (racemic) [Example 191, (±)-5-{α-[2-(dimethylamino)ethoxy]benzyl}-1-methyl-1H-pyrazol citrate], the inhibition at 1 µM ([1]; Rattus norvegicus, central, 1 μM, intrathecal, in the perfusion liquid, rats anaesthetised with halothane, read-out: % Inhibition, with respect to control, of intrathecal release of substance P) is reported as 58%, the inhibition at 46 mg/kg ([1]; Rattus norvegicus, central, systematic administration (46 mg/kg), average during the 2 hours, read-out: average inhibition of intrathecal release of substance P) is reported as 50% and the inhibition at 46 mg/kg ([1]; Rattus norvegicus, 46 mg/kg, ip, rats anaesthetised with halothane, read-out: % Inhibition, with respect to control, of intrathecal release of substance P) is reported as 50%. The “effect on release of substance P” value ([1]; intrathecally in the perfusion liquid, 1 μM) was “inhibited the release of substance P”, the “duration of the effect on the intrathecal release of substance P” value ([1]; systematic administration (46 mg/kg)) was 2 h and the “effect on release of substance P” value ([1]; systematic administration of 46 mg/kg) was “reduced the release of substance P”. The inhibition at 12 mg/kg ([2]; Mus musculus, 12 mg/kg, oral (dose as base)) was 8%, the inhibition at 23 mg/kg ([2]; Mus musculus, 23 mg/kg, oral (dose as base)) was 30% and the inhibition at 80 mg/kg ([2]; Mus musculus, 80 mg/kg, oral (dose as base)) was 75%. For the same molecule, the inhibition at 92 mg/kg ([2]; Mus musculus, 92 mg/kg, oral (dose as base)) was 84%, the “anti-depressive activity, inhibition of the effects of reserpine” value ([2]; oral, different doses) was “clear anti-depressive activity inhibiting the effects of reserpine with a good dose-response” and the SD-50 ([2]; oral, inhibition of ptosis induced by reserpine) was 38.5 mg/kg, oral. The inhibition at 12 mg/kg ([3]; Mus musculus, mice, dose 12 mg/kg, oral) was 20%, the inhibition at 23 mg/kg ([3]; Mus musculus, mice, dose 23 mg/kg, oral) was 30% and the inhibition at 46 mg/kg ([3]; Mus musculus, mice, dose 46 mg/kg, oral) was 41%. For the same molecule, the inhibition at 92 mg/kg ([3]; Mus musculus, mice, dose 92 mg/kg, oral) was 69%, the “effect on the immobility period” value ([3]; mice suspended by their tails for six minutes) was “reducing the immobility period significantly and in a dose-dependent fashion” and the “DE-50 (inhibition of immobility time in adverse situation)” value ([3]; mice, oral) was 50.5 mg/kg, oral.
